Data taken from patent US20110201818A1, “POLO-LIKE KINASE INHIBITORS” (TAKEDA PHARMACEUTICAL COMPANY LIMITED, priority 2007, published 2011).
Read-outs that look alike come from different tables or passages of the source.

Biological target: T1, human PLK1 (Homo sapiens, UniProt P53350)
T1 construct: FLAG (DYKDDDDK) (N); made in house; host or cells: Sf21 insect cells, recombinant baculovirus (pFASTBAC1, Bac-to-Bac)
Experiment: PLK1 in vitro enzymatic activity assay (phosphorylation of alpha casein by recombinant PLK1)
Assay type: biochemical
Method: PCR was performed using the vector as a template. […] After XbaI and XhoI digestion of the PCR product, the fragment was subcloned into pFASTBAC1 (Invitrogen, USA). Recombinant baculoviruses were prepared according to the procedure of the Bac-to-Bac baculovirus expression system (Invitrogen, USA). Sf21 cells were purchased from Invitrogen and grown in Sf-900 II SFM medium containing 10% fetal bovine serum, 50 μg/mL gentamicin and 0.1% pluronic F-68 (Invitrogen, USA) at 28° C. For preparation of PLK1 enzyme, Sf21 cells were infected with recombinant baculoviruses and cultured at 28° C. for 72 h.
The inhibition of PLK1 by the compounds was determined with the following assay that measures the phosphorylation of alpha casein by recombinant PLK1. Kinase reactions were performed at room temperature for 40 min in the kinase reaction buffer (25 mmol/L HEPES, pH 7.5, 10 mmol/L magnesium acetate, 1 mmol/L dithiothreitol) containing 50 ng PLK1 enzyme, 0.1 μCi [γ-^32P]ATP, 500 nmol/L ATP and 3 μg alpha casein (MP Biomedicals Inc., USA) in a final volume of 50 μL. The incubation was terminated by the addition of 10% trichloroacetic acid (Wako, Japan). Phosphorylated proteins were filtrated in GF/C filter plates (Packard, USA) with a Cell harvester (Packard, USA) and washed out free [γ-^32P]-ATP with 250 mmol/L phosphoric acid. Then, the plates were air dried for 60 min at 45° C., followed by the addition of 20 μL of MicroScint-O (Packard, USA). The radioactivity was counted by a Top-count scintillation counter (Packard, USA).

[1] = recombinant FLAG-tagged PLK1, alpha casein substrate, 500 nmol/L ATP, 40 min at room temperature, read-out: pIC50 (PLK1) (converted)

T1 sequence (P53350 with tags, fused parts or gaps): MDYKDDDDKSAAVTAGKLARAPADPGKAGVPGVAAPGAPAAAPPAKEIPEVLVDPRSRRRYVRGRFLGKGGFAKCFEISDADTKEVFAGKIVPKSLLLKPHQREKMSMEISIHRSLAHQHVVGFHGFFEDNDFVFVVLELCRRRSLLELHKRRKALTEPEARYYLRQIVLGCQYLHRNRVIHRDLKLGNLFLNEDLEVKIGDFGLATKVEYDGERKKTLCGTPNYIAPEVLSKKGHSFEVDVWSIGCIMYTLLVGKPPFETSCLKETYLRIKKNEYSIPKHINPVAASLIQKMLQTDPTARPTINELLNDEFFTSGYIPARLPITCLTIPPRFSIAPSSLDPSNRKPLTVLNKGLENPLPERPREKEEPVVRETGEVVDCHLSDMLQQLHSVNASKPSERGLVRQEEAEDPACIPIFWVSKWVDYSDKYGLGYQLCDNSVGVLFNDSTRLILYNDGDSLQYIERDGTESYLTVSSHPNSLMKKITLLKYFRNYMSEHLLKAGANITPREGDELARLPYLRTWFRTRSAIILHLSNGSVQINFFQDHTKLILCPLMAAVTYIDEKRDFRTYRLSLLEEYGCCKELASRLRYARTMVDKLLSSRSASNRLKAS

| Structure (SMILES) | IC50 [1] | IC50 |
| --- | --- | --- |
| COc1cc(C(=O)NN2CCOCC2)ccc1Nc1ncc2c(n1)N(C1CCCCC1)CC(F)(F)C(=O)N2C [Compound 65, 4-(9-cyclohexyl-7,7-difluoro-5-methyl-6-oxo-6,7,8,9-tetrahydro-5H-pyrimido[4,5-b][1,4]diazepin-2-ylamino)-3-methoxy-N-morpholinobenzamide] | ≤ 2 nM | – |
| COc1cc(C(=O)NC2CCOCC2)ccc1Nc1ncc2c(n1)N(C1CCCCC1)CC(F)(F)C(=O)N2C [Compound 66, 4-(9-cyclohexyl-7,7-difluoro-5-methyl-6-oxo-6,7,8,9-tetrahydro-5H-pyrimido[4,5-b][1,4]diazepin-2-ylamino)-3-methoxy-N-(tetrahydro-2H-pyran-4-yl)benzamide] | ≤ 2 nM | – |
| COc1cc(C(=O)NN2CCCC2)ccc1Nc1ncc2c(n1)N(C1CCCCC1)CC(F)(F)C(=O)N2C [Compound 67, 4-(9-cyclohexyl-7,7-difluoro-5-methyl-6-oxo-6,7,8,9-tetrahydro-5H-pyrimido[4,5-b][1,4]diazepin-2-ylamino)-3-methoxy-N-(pyrrolidin-1-yl)benzamide] | ≤ 2 nM | – |
| COc1cc(C(=O)NC2CN(C(C)=O)C2)ccc1Nc1ncc2c(n1)N(C1CCCCC1)CC(F)(F)C(=O)N2C [Compound 69, N-(1-acetylazetidin-3-yl)-4-(9-cyclohexyl-7,7-difluoro-5-methyl-6-oxo-6,7,8,9-tetrahydro-5H-pyrimido[4,5-b][1,4]diazepin-2-ylamino)-3-methoxybenzamide] | ≤ 2 nM | – |
| COc1cc(C(=O)NC2CCNCC2)ccc1Nc1ncc2c(n1)N(C1CCCCC1)CC(F)(F)C(=O)N2C [Compound 70, 4-(9-cyclohexyl-7,7-difluoro-5-methyl-6-oxo-6,7,8,9-tetrahydro-5H-pyrimido[4,5-b][1,4]diazepin-2-ylamino)-3-methoxy-N-(piperidin-4-yl)benzamide] | ≤ 2 nM | – |
| COc1cc(C(=O)N[C@H]2CCCN(C)C2)ccc1Nc1ncc2c(n1)N(C1CCCCC1)CC(F)(F)C(=O)N2C [Compound 74, (S)-4-(9-cyclohexyl-7,7-difluoro-5-methyl-6-oxo-6,7,8,9-tetrahydro-5H-pyrimido[4,5-b][1,4]diazepin-2-ylamino)-3-methoxy-N-(1-methylpiperidin-3-yl)benzamide] | ≤ 2 nM | – |
| COc1cc(C(=O)N[C@@H]2CCCN(C)C2)ccc1Nc1ncc2c(n1)N(C1CCCCC1)CC(F)(F)C(=O)N2C [Compound 75, (R)-4-(9-cyclohexyl-7,7-difluoro-5-methyl-6-oxo-6,7,8,9-tetrahydro-5H-pyrimido[4,5-b][1,4]diazepin-2-ylamino)-3-methoxy-N-(1-methylpiperidin-3-yl)benzamide] | ≤ 2 nM | – |
| COc1cc(C(=O)NC2CC2)ccc1Nc1ncc2c(n1)N(C1CCCCC1)CC(F)(F)C(=O)N2C [Compound 76, 4-(9-cyclohexyl-7,7-difluoro-5-methyl-6-oxo-6,7,8,9-tetrahydro-5H-pyrimido[4,5-b][1,4]diazepin-2-ylamino)-N-cyclopropyl-3-methoxybenzamide] | ≤ 2 nM | – |
| COc1cc(C(=O)NN2CCNCC2)ccc1Nc1ncc2c(n1)N(C1CCCCC1)CC(F)(F)C(=O)N2C [Compound 77, 4-(9-cyclohexyl-7,7-difluoro-5-methyl-6-oxo-6,7,8,9-tetrahydro-5H-pyrimido[4,5-b][1,4]diazepin-2-ylamino)-3-methoxy-N-(piperazin-1-yl)benzamide] | ≤ 2 nM | – |
| CCN1CCN(NC(=O)c2ccc(Nc3ncc4c(n3)N(C3CCCCC3)CC(F)(F)C(=O)N4C)c(OC)c2)CC1 [Compound 78, 4-(9-cyclohexyl-7,7-difluoro-5-methyl-6-oxo-6,7,8,9-tetrahydro-5H-pyrimido[4,5-b][1,4]diazepin-2-ylamino)-N-(4-ethylpiperazin-1-yl)-3-methoxybenzamide] | – | ≤ 2 nM |
| COc1cc(C(=O)NN2CCN(C(C)C)CC2)ccc1Nc1ncc2c(n1)N(C1CCCCC1)CC(F)(F)C(=O)N2C [Compound 79, 4-(9-cyclohexyl-7,7-difluoro-5-methyl-6-oxo-6,7,8,9-tetrahydro-5H-pyrimido[4,5-b][1,4]diazepin-2-ylamino)-N-(4-isopropylpiperazin-1-yl)-3-methoxybenzamide] | ≤ 2 nM | – |
| COc1cc(C(=O)NN2CCN(CC3CC3)CC2)ccc1Nc1ncc2c(n1)N(C1CCCCC1)CC(F)(F)C(=O)N2C [Compound 80, 4-(9-cyclohexyl-7,7-difluoro-5-methyl-6-oxo-6,7,8,9-tetrahydro-5H-pyrimido[4,5-b][1,4]diazepin-2-ylamino)-N-(4-(cyclopropylmethyl)piperazin-1-yl)-3-methoxybenzamidemethoxybenzamide] | ≤ 2 nM | – |
| COc1cc(C(=O)NN2CCN(C(=O)CN(C)C)CC2)ccc1Nc1ncc2c(n1)N(C1CCCCC1)CC(F)(F)C(=O)N2C [Compound 81, 4-(9-cyclohexyl-7,7-difluoro-5-methyl-6-oxo-6,7,8,9-tetrahydro-5H-pyrimido[4,5-b][1,4]diazepin-2-ylamino)-N-(4-(2-(dimethylamino)acetyl)piperazin-1-yl)-3-methoxybenzamide] | ≤ 2 nM | – |
| COc1cc(C(=O)NC2CCN(C)CC2)ccc1Nc1ncc2c(n1)N(C1CC[C@@H](C)C1)CC(F)(F)C(=O)N2C (stereo partly drawn) [Compound 83, 4-(7,7-difluoro-5-methyl-9-((3R)-3-methylcyclopentyl)-6-oxo-6,7,8,9-tetrahydro-5H-pyrimido[4,5-b][1,4]diazepin-2-ylamino)-3-methoxy-N-(1-methylpiperidin-4-yl)benzamide] | ≤ 2 nM | – |
| COc1cc(C(=O)NC2CCN(C)CC2)ccc1Nc1ncc2c(n1)N(C1CCCC1)CC(F)C(=O)N2C (centres unmarked) [Compound 84, 4-(9-cyclopentyl-7-fluoro-5-methyl-6-oxo-6,7,8,9-tetrahydro-5H-pyrimido[4,5-b][1,4]diazepin-2-ylamino)-3-methoxy-N-(1-methylpiperidin-4-yl)benzamide] | ≤ 2 nM | – |
| COc1cc(C(=O)NC2CCN(C)CC2)ccc1Nc1ncc2c(n1)N(C1CCCC1)CC(F)(C(F)(F)F)C(=O)N2C (centres unmarked) [Compound 85, 4-(9-cyclopentyl-7-fluoro-5-methyl-6-oxo-7-(trifluoromethyl)-6,7,8,9-tetrahydro-5H-pyrimido[4,5-b][1,4]diazepin-2-ylamino)-3-methoxy-N-(1-methylpiperidin-4-yl)benzamide] | > 2 nM | – |
| COc1cc(C(=O)NC2CCN(C)CC2)ccc1Nc1ncc2c(n1)N(C1CCCC1)CC(C)(F)C(=O)N2C (centres unmarked) [Compound 87, 4-(9-cyclopentyl-7-fluoro-5,7-dimethyl-6-oxo-6,7,8,9-tetrahydro-5H-pyrimido[4,5-b][1,4]diazepin-2-ylamino)-3-methoxy-N-(1-methylpiperidin-4-yl)benzamide] | ≤ 2 nM | – |
| COc1cc(C(=O)NC2CN(C)C2)ccc1Nc1ncc2c(n1)N(C1CCCC1)CC(C)(F)C(=O)N2C (centres unmarked) [Compound 88, 4-(9-Cyclopentyl-7-fluoro-5,7-dimethyl-6-oxo-6,7,8,9-tetrahydro-5H-pyrimido[4,5-b][1,4]diazepin-2-ylamino)-3-methoxy-N-(1-methylazetidin-3-yl)benzamide] | ≤ 2 nM | – |
| COc1cc(C(=O)NC2CCN(C)CC2)ccc1Nc1ncc2c(n1)N(C1CCCCC1)CC(C)(F)C(=O)N2C (centres unmarked) [Compound 89, 4-(9-Cyclohexyl-7-fluoro-5,7-dimethyl-6-oxo-6,7,8,9-tetrahydro-5H-pyrimido[4,5-b][1,4]diazepin-2-ylamino)-3-methoxy-N-(1-methylpiperidin-4-yl)benzamide] | ≤ 2 nM | – |
| COc1cc(C(=O)NC2CN(C)C2)ccc1Nc1ncc2c(n1)N(C1CCCCC1)CC(C)(F)C(=O)N2C (centres unmarked) [Compound 90, 4-(9-Cyclohexyl-7-fluoro-5,7-dimethyl-6-oxo-6,7,8,9-tetrahydro-5H-pyrimido[4,5-b][1,4]diazepin-2-ylamino)-3-methoxy-N-(1-methylazetidin-3-yl)benzamide] | ≤ 2 nM | – |
| CCC1(F)CN(C2CCCC2)c2nc(Nc3ccc(C(=O)NC4CN(C)C4)cc3OC)ncc2N(C)C1=O (centres unmarked) [Compound 95, 4-(9-Cyclopentyl-7-ethyl-7-fluoro-5-methyl-6-oxo-6,7,8,9-tetrahydro-5H-pyrimido[4,5-b][1,4]diazepin-2-ylamino)-3-methoxy-N-(1-methylazetidin-3-yl)benzamide] | ≤ 2 nM | – |
| CCC1(F)CN(C2CCCCC2)c2nc(Nc3ccc(C(=O)NC4CCN(C)CC4)cc3OC)ncc2N(C)C1=O (centres unmarked) [Compound 96, 4-(9-Cyclohexyl-7-ethyl-7-fluoro-5-methyl-6-oxo-6,7,8,9-tetrahydro-5H-pyrimido[4,5-b][1,4]diazepin-2-ylamino)-3-methoxy-N-(1-methylpiperidin-4-yl)benzamide] | > 2 nM | – |
| CCC1(F)CN(C2CCCCC2)c2nc(Nc3ccc(C(=O)NC4CN(C)C4)cc3OC)ncc2N(C)C1=O (centres unmarked) [Compound 97, 4-(9-Cyclohexyl-7-ethyl-7-fluoro-5-methyl-6-oxo-6,7,8,9-tetrahydro-5H-pyrimido[4,5-b][1,4]diazepin-2-ylamino)-3-methoxy-N-(1-methylazetidin-3-yl)benzamide] | > 2 nM | – |
